Laboratory results as given in ChEMBL document CHEMBL1141633, “Synthesis and biological evaluation of chalcones as inhibitors of the voltage-gated potassium channel Kv1.3” (Bioorg Med Chem Lett, 2008).

target: T1, Potassium voltage-gated channel subfamily A member 3 (Homo sapiens, UniProt P22001); assay: Inhibition in Kv1.3 expressed in human Jurkat cells by patch clamp method; assay type: cell-based
T1 sequence (P22001 whole entry): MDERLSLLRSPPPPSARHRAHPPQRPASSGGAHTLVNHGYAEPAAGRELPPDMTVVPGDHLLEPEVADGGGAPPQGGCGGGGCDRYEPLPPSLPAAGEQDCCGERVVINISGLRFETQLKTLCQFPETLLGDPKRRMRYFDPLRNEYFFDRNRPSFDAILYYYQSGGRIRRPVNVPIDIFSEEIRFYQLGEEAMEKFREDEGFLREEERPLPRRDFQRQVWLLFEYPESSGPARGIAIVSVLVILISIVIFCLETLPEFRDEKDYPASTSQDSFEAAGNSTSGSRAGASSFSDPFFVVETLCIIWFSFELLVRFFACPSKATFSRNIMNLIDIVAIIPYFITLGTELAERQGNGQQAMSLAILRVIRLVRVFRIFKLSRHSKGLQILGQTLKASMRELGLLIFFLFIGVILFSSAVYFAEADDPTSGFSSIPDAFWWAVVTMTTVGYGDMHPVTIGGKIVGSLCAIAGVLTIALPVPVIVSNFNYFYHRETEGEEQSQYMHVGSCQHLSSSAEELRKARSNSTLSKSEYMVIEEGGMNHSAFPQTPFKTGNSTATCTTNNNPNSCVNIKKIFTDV

Row | SMILES | EC50 [nM]
1 | COc1cccc(/C=C(\C)C(=O)c2c(O)c(OC)c3occc3c2OC)c1 | 3000
2 | COc1cccc(/C=C/C(=O)c2cc(OC)c3occc3c2OC)c1 | 2400
3 | COc1c(C(=O)/C=C/c2ccccc2)cc(OC)c2occc12 | 2400

The remaining lines, values ahead:

Row | EC50 [nM] | SMILES
4 | 1700 | COc1cccc(/C=C/C(=O)c2cc3ccoc3c(OC)c2O)c1
5 | 900 | COc1cccc(/C=C/C(=O)c2c(O)c(OC)c3occc3c2OC)c1

target: T1, Potassium voltage-gated channel subfamily A member 3; assay: Inhibition in Kv1.3 expressed in […] by patch clamp method

Row | EC50 [nM] | SMILES
6 | 17000 | COc1c(C(=O)/C=C/c2ccccc2)c(O)cc2occc12
7 | 400 | COc1c(C(=O)/C=C/c2ccccc2)c(O)c(OC)c2occc12
8 | 800 | COc1cccc(/C=C/C(=O)c2c(O)c(OC)c3occc3c2OC)c1
